Measurements: patent publication US12419877B2, “Solid forms of {[5-(3-chlorophenyl)-3-hydroxypyridine-2-carbonyl]amino}acetic acid, compositions, and uses thereof” (Akebia Therapeutics, Inc., priority 2013, dated 2025)
Read-outs that look alike come from different tables or passages of the source.

Assay: Solubility experiments (approximate solubility by solvent aliquot addition)
Assay type: physicochemical
Details: thermodynamic from solid
Protocol: Approximately 20 mg of Form A of Compound (1) was placed in each of 48 vials and 5 volume aliquots of the appropriate solvent systems were added to the appropriate vial. Between each addition, the mixture was checked for dissolution and if no dissolution was apparent, the mixture was warmed to ca. 50° C. and checked again. This procedure was continued until dissolution was observed or until 100 volumes of solvent had been added.

Measured: solubility

O=C(O)CNC(=O)c1ncc(-c2cccc(Cl)c2)cc1O [Form A of Compound (I), {[5-(3-chlorophenyl)-3-hydroxypyridine-2-carbonyl]amino}acetic acid]
< 200 mg/mL: organic solvent or mixture, Solvent: 2-Ethoxyethanol, RT (ca. 22° C.), read-out: Solubility (mg/mL) RT (ca. 22° C.) | organic solvent or mixture, Solvent: Acetone/Water (3%), RT (ca. 22° C.), read-out: Solubility (mg/mL) RT (ca. 22° C.) | organic solvent or mixture, Solvent: Acetone/Water (20%), RT (ca. 22° C.), read-out: Solubility (mg/mL) RT (ca. 22° C.) | organic solvent or mixture, Solvent: Cyclohexanone, RT (ca. 22° C.), read-out: Solubility (mg/mL) RT (ca. 22° C.)
> 200 mg/mL: organic solvent or mixture, Solvent: 1,4-Dioxane, RT (ca. 22° C.), read-out: Solubility (mg/mL) RT (ca. 22° C.) | organic solvent or mixture, Solvent: 1,4-Dioxane, ca. 50° C., read-out: Solubility (mg/mL) (ca. 50° C.) | organic solvent or mixture, Solvent: 2-Methoxyethanol, RT (ca. 22° C.), read-out: Solubility (mg/mL) RT (ca. 22° C.) | organic solvent or mixture, Solvent: 2-Methoxyethanol, ca. 50° C., read-out: Solubility (mg/mL) (ca. 50° C.) | organic solvent or mixture, Solvent: 2-Methyl tetrahydrofuran (2-MeTHF), RT (ca. 22° C.), read-out: Solubility (mg/mL) RT (ca. 22° C.) | organic solvent or mixture, Solvent: 2-Methyl tetrahydrofuran (2-MeTHF), ca. 50° C., read-out: Solubility (mg/mL) (ca. 50° C.)
< 40 mg/mL: organic solvent or mixture, Solvent: Anisole, RT (ca. 22° C.), read-out: Solubility (mg/mL) RT (ca. 22° C.)
> 100 mg/mL: organic solvent or mixture, Solvent: Acetone, ca. 50° C., read-out: Solubility (mg/mL) (ca. 50° C.)
40 mg/mL: organic solvent or mixture, Solvent: Anisole, ca. 50° C., read-out: Solubility (mg/mL) (ca. 50° C.)
68 mg/mL: organic solvent or mixture, Solvent: Benzyl alcohol, ca. 50° C., read-out: Solubility (mg/mL) (ca. 50° C.)
< 68 mg/mL: organic solvent or mixture, Solvent: Benzyl alcohol, RT (ca. 22° C.), read-out: Solubility (mg/mL) RT (ca. 22° C.)
200 mg/mL: organic solvent or mixture, Solvent: 2-Ethoxyethanol, ca. 50° C., read-out: Solubility (mg/mL) (ca. 50° C.) | organic solvent or mixture, Solvent: Acetone/Water (3%), ca. 50° C., read-out: Solubility (mg/mL) (ca. 50° C.) | organic solvent or mixture, Solvent: Acetone/Water (20%), ca. 50° C., read-out: Solubility (mg/mL) (ca. 50° C.) | organic solvent or mixture, Solvent: Cyclohexanone, ca. 50° C., read-out: Solubility (mg/mL) (ca. 50° C.)
13 mg/mL: organic solvent or mixture, Solvent: 2-Propanol (IPA), ca. 50° C., read-out: Solubility (mg/mL) (ca. 50° C.) | organic solvent or mixture, Solvent: Acetonitrile, ca. 50° C., read-out: Solubility (mg/mL) (ca. 50° C.)
20 mg/mL: organic solvent or mixture, Solvent: 1,2-Propanediol, ca. 50° C., read-out: Solubility (mg/mL) (ca. 50° C.) | organic solvent or mixture, Solvent: 1-Butanol (1-BuOH), ca. 50° C., read-out: Solubility (mg/mL) (ca. 50° C.) | organic solvent or mixture, Solvent: 1-Propanol (1-PrOH), ca. 50° C., read-out: Solubility (mg/mL) (ca. 50° C.)
< 13 mg/mL: organic solvent or mixture, Solvent: 2-Propanol (IPA), RT (ca. 22° C.), read-out: Solubility (mg/mL) RT (ca. 22° C.) | organic solvent or mixture, Solvent: Acetonitrile, RT (ca. 22° C.), read-out: Solubility (mg/mL) RT (ca. 22° C.)
10 mg/mL: organic solvent or mixture, Solvent: Diethyl ether, ca. 50° C., read-out: Solubility (mg/mL) (ca. 50° C.)
100 mg/mL: organic solvent or mixture, Solvent: Acetone, RT (ca. 22° C.), read-out: Solubility (mg/mL) RT (ca. 22° C.)
< 10 mg/mL: aqueous with cosolvent or surfactant or cyclodextrin, Solvent: MeOH/Water (20%), ca. 50° C., read-out: Solubility (mg/mL) (ca. 50° C.) | aqueous with cosolvent or surfactant or cyclodextrin, Solvent: MeOH/Water (50%), RT (ca. 22° C.), read-out: Solubility (mg/mL) RT (ca. 22° C.) | aqueous with cosolvent or surfactant or cyclodextrin, Solvent: MeOH/Water (50%), ca. 50° C., read-out: Solubility (mg/mL) (ca. 50° C.) | ethyl acetate/cyclohexane (1:2), organic solvent or mixture, Solvent: EtOAc/Cyclohexane (1:2), RT (ca. 22° C.), read-out: Solubility (mg/mL) RT (ca. 22° C.) | organic solvent or mixture, Solvent: 3-Methyl-1-butanol, RT (ca. 22° C.), read-out: Solubility (mg/mL) RT (ca. 22° C.) | organic solvent or mixture, Solvent: 3-Methyl-1-butanol, ca. 50° C., read-out: Solubility (mg/mL) (ca. 50° C.) | organic solvent or mixture, Solvent: Benzonitrile, RT (ca. 22° C.), read-out: Solubility (mg/mL) RT (ca. 22° C.) | organic solvent or mixture, Solvent: Benzonitrile, ca. 50° C., read-out: Solubility (mg/mL) (ca. 50° C.) | organic solvent or mixture, Solvent: Chloroform, RT (ca. 22° C.), read-out: Solubility (mg/mL) RT (ca. 22° C.) | organic solvent or mixture, Solvent: Chloroform, ca. 50° C., read-out: Solubility (mg/mL) (ca. 50° C.) | organic solvent or mixture, Solvent: Cumene, RT (ca. 22° C.), read-out: Solubility (mg/mL) RT (ca. 22° C.) | organic solvent or mixture, Solvent: Cumene, ca. 50° C., read-out: Solubility (mg/mL) (ca. 50° C.) | organic solvent or mixture, Solvent: Cyclohexane, RT (ca. 22° C.), read-out: Solubility (mg/mL) RT (ca. 22° C.) | organic solvent or mixture, Solvent: Cyclohexane, ca. 50° C., read-out: Solubility (mg/mL) (ca. 50° C.) | organic solvent or mixture, Solvent: Dichloromethane (DCM), RT (ca. 22° C.), read-out: Solubility (mg/mL) RT (ca. 22° C.) | organic solvent or mixture, Solvent: Dichloromethane (DCM), ca. 50° C., read-out: Solubility (mg/mL) (ca. 50° C.) | organic solvent or mixture, Solvent: Diethyl ether, RT (ca. 22° C.), read-out: Solubility (mg/mL) RT (ca. 22° C.) | organic solvent or mixture, Solvent: Diisopropyl ether (DIPE), RT (ca. 22° C.), read-out: Solubility (mg/mL) RT (ca. 22° C.)
< 20 mg/mL: organic solvent or mixture, Solvent: 1,2-Propanediol, RT (ca. 22° C.), read-out: Solubility (mg/mL) RT (ca. 22° C.) | organic solvent or mixture, Solvent: 1-Butanol (1-BuOH), RT (ca. 22° C.), read-out: Solubility (mg/mL) RT (ca. 22° C.) | organic solvent or mixture, Solvent: 1-Propanol (1-PrOH), RT (ca. 22° C.), read-out: Solubility (mg/mL) RT (ca. 22° C.)
